One may read the IC50 as the concentration that gives 50% inhibition.

Holding throughout (assay type): cell-based, human
One assay relates to SK-OV-3 cells. Put plainly: CCK-8 anti-proliferative assay, SK-OV-3. The settings on record: co-incubated 48 h, read-out: Anti-proliferative activity (IC50 ± standard deviation) SK-OV-3. The method, then:
(§1) The obtained quinazolinyl-aryl urea derivatives were screened for compounds with optimal activity using the following method.
(§2) Experimental Procedure for Anti-Proliferative Activity Evaluation: The CCK-8 assay was employed. Cells in logarithmic growth phase were harvested, adjusted to appropriate density, and uniformly seeded into 96-well plates using a multichannel pipette (180 μL cell suspension containing complete medium per well, 5,000 cells/well). Blank control wells (containing basal medium, CCK-8 solution, and DMSO only) were set. Cells were incubated at 37° C. under 5% CO2. After 70% confluency was reached, test compounds (target compounds/positive controls) were added at final concentrations of 1, 2, 4, 6, 8, 12, 16, 24, and 30 μM (3 repeated wells per concentration). Compounds were pre-dissolved in DMSO, sterilized, and diluted with medium before adding 20 μL/well. After co-incubation for designated durations, 10 μL CCK-8 solution was added per well followed by 1-4 h incubation (different cells have different incubation times). […] Inhibition rates were calculated as: (ODcontrol−ODtreatment)/ODcontrol×100%. Median inhibitory concentrations (IC50 values) were derived using Origin v8.0 software.
(Tetrazolium assays rely on reduction of a dye to a coloured formazan, in cell work by metabolically active cells.)

The subject of assay [1] is immortalized ureteral epithelial cells (SV-HUC-1). Briefly: CCK-8 anti-proliferative assay, normal cells SV-HUC-1. The settings on record: read-out: Anti-proliferative activity (IC50 ± standard deviation) SV-HUC-1. The method, then: as §1, §2
For assay [2], the system named is embryonic lung fibroblasts (WI-38). Briefly: CCK-8 anti-proliferative assay, normal cells WI-38. As to conditions: read-out: Anti-proliferative activity (IC50 ± standard deviation) WI-38. From the text:
(§3) The obtained quinazolinyl-aryl urea derivatives were screened for compounds with optimal activity using the following method. All cell lines employed in this experiment were of human origin, including: bladder cancer cells: J82, UM-UC-3, T24, 5637, pancreatic cancer cells: BxPC-3, PANC-1, osteosarcoma cells: 143B, MG-63, cervical cancer cells: HeLa, breast cancer cells: MCF-7, NSCLC cells: A549, hepatoblastoma cells: Hep G2, and ovarian cancer cells: SK-OV-3, as well as normal cell lines: immortalized ureteral epithelial cells (SV-HUC-1), embryonic lung fibroblasts (WI-38).
(§4) Experimental Procedure for Anti-Proliferative Activity Evaluation: The CCK-8 assay was employed. Cells in logarithmic growth phase were harvested, adjusted to appropriate density, and uniformly seeded into 96-well plates using a multichannel pipette (180 μL cell suspension containing complete medium per well, 5,000 cells/well). Blank control wells (containing basal medium, CCK-8 solution, and DMSO only) were set. Cells were incubated at 37° C. under 5% CO2. After 70% confluency was reached, test compounds (target compounds/positive controls) were added at final concentrations of 1, 2, 4, 6, 8, 12, 16, 24, and 30 μM (3 repeated wells per concentration). Compounds were pre-dissolved in DMSO, sterilized, and diluted with medium before adding 20 μL/well. After co-incubation for designated durations, 10 μL CCK-8 solution was added per well followed by 1-4 h incubation (different cells have different incubation times). The reaction was terminated, and OD (optical density) values at 450 nm were measured using a microplate reader. Inhibition rates were calculated as: (ODcontrol−ODtreatment)/ODcontrol×100%. Median inhibitory concentrations (IC50 values) were derived using Origin v8.0 software.

A further assay has as its system Hep G2 cells. Put plainly: CCK-8 anti-proliferative assay, Hep G2. As to conditions: Table 8, co-incubated 48 h, read-out: Anti-proliferative activity (IC50 ± standard deviation) Hep G2.
Text: as §3, §4

A further assay relates to PANC-1 cells. Briefly: CCK-8 anti-proliferative assay, PANC-1. The settings on record: co-incubated 48 h, read-out: Anti-proliferative activity (IC50 ± standard deviation) PANC-1.
Text: as §3, §4

A further assay relates to 5637 cells. Put plainly: CCK-8 anti-proliferative assay, 5637. As to conditions: Table 6, co-incubated 48 h, read-out: Anti-proliferative activity (IC50 ± standard deviation) 5637. Here is the method:
as §1, §2

In the next assay the test system is 143B cells. Put plainly: CCK-8 anti-proliferative assay, 143B. As to conditions: co-incubated 48 h, read-out: Anti-proliferative activity (IC50 ± standard deviation) 143B.
Text: as §3, §4

Another assay concerns A549 cells. Briefly: CCK-8 anti-proliferative assay, A549. The settings on record: Table 8, co-incubated 48 h, read-out: Anti-proliferative activity (IC50 ± standard deviation) A549. Here is the method:
as §1, §2

For another assay, the system named is MCF-7 cells. Briefly: CCK-8 anti-proliferative assay, MCF-7. As to conditions: Table 8, co-incubated 48 h, read-out: Anti-proliferative activity (IC50 ± standard deviation) MCF-7. The method, then: as §1, §2
The next assay has as its system UM-UC-3 cells. Briefly: CCK-8 anti-proliferative assay, UM-UC-3. The settings on record: co-incubated 48 h, read-out: Anti-proliferative activity (IC50 ± standard deviation) UM-UC-3. The method, then: as §1, §2
The test system of another assay is MG-63 cells. Briefly: CCK-8 anti-proliferative assay, MG-63. As to conditions: co-incubated 48 h, read-out: Anti-proliferative activity (IC50 ± standard deviation) MG-63.
Text: as §3, §4

Another assay concerns BxPC-3 cells. Put plainly: CCK-8 anti-proliferative assay, BxPC-3. The settings on record: co-incubated 48 h, read-out: Anti-proliferative activity (IC50 ± standard deviation) BxPC-3.
Text: as §3, §4

In the next assay the test system is HeLa cells. Briefly: CCK-8 anti-proliferative assay, HeLa. As to conditions: Table 8, co-incubated 48 h, read-out: Anti-proliferative activity (IC50 ± standard deviation) HeLa. The method, then:
as §1, §2

Another assay relates to T24 cells. Put plainly: CCK-8 anti-proliferative assay, T24. The settings on record: Table 6, co-incubated 48 h, read-out: Anti-proliferative activity (IC50 ± standard deviation) T24.
Text: as §3, §4

A further assay deals with J82 cells. Briefly: CCK-8 anti-proliferative assay, J82. The settings on record: Table 6, co-incubated 48 h, read-out: Anti-proliferative activity (IC50 ± standard deviation) J82. The method, then: as §1, §2
Setting [3] is: Table 9, normal cells, co-incubated 48 h.
[4] abbreviates: Homo sapiens, WI-38, Table 9, co-incubated 48 h.
[5] abbreviates: Homo sapiens, SV-HUC1, Table 9, normal cells, co-incubated 48 h.
The mark [6] stands for this setting: Homo sapiens, PANC-1, Table 15, comparative compounds.
[7] abbreviates: Homo sapiens, SK-OV-3, Table 15, comparative compounds.
The mark [8] stands for this setting: Homo sapiens, 143B, Table 14, comparative compounds.
[9] abbreviates: Homo sapiens, UMUC3, Table 14, comparative compounds.
[10] abbreviates: Homo sapiens, MG-63, Table 14, comparative compounds.
The mark [11] stands for this setting: Homo sapiens, BXPC-3, Table 15, comparative compounds.

Molecules are shown by their SMILES. Read-outs that look alike come from different tables or passages of the source.

`[NH2][Pt]([NH2])([Cl])[Cl]` [CDDP, cisplatin, reference compound]: the concentration for half-maximal inhibition (IC50) was found to be 9.89 ± 0.97 µM with SK-OV-3 cells (Table 9) and 10.3 ± 0.68 µM in [1] (setting [3]).

As to `COc1cc2ncnc(NCc3cccc(NC(=O)Nc4ccccc4)c3)c2cc1OCCCCCCN1CCN(CCN2CCOCC2)CC1` [Compound 8-1a, N-(3-(((7-methoxy-6-((6-(4-(2-morpholinoethyl)piperazin-1-yl)hexyl)oxy)quinazolin-4-yl)a-mino)methyl)phenyl)-N′-phenylurea], the 50% inhibitory concentration (IC50) in assay [2] (Table 9, co-incubated 48 h) is 25.9 ± 2.74 µM; in the assay with Hep G2 cells, > 30 µM; in the assay on PANC-1 cells (Table 7), > 30 µM; in the assay with SK-OV-3 cells (Table 9) it was 28.1 ± 1.72 µM; in assay [1] (setting [3]), > 30 µM; in the assay on 5637 cells it was 26.4 ± 1.63 µM. The half-maximal inhibitory concentration (IC50) in the assay with 143B cells (Table 7) is 18.7 ± 1.63 µM; in the assay with A549 cells, > 30 µM; in the assay on MCF-7 cells, > 30 µM; with UM-UC-3 cells (Table 6) it was > 30 µM; in the assay on MG-63 cells (Table 7) it was 27.3 ± 1.51 µM; in the assay with BxPC-3 cells (Table 7), 15.7 ± 0.78 µM. Further, the IC50 with HeLa cells, in the assay with T24 cells and in the assay on J82 cells was > 30 µM each time.

As for `COc1cc2ncnc(NCc3cccc(NC(=O)Nc4cccc(C)c4)c3)c2cc1OCCCCCCN1CCN(CCN2CCOCC2)CC1` [Compound 8-1c, N-(3-(((7-methoxy-6-((6-(4-(2-morpholinoethyl)piperazin-1-yl)hexyl)oxy)quinazolin-4-yl)amino)methyl)phenyl)-N′-(3-methylphenyl)urea], the IC50 in [2] (setting [4]) was 13.9 ± 0.73 µM; in the assay with Hep G2 cells (Homo sapiens, HepG2), 7.27 ± 0.51 µM; in the assay with PANC-1 cells (Homo sapiens, PANC-1, Table 7), > 30 µM; with SK-OV-3 cells (Homo sapiens, SK-OV-3, Table 9) it was 9.73 ± 0.69 µM; in [1] (setting [5]) it was 16 ± 0.81 µM; with 5637 cells (Homo sapiens), 13 ± 0.85 µM. In addition, the IC50 came out at 13 ± 0.84 µM in the assay with 143B cells (Homo sapiens, 143B, Table 7); 18.4 ± 0.98 µM in the assay on A549 cells (Homo sapiens, A549); 25.8 ± 2.53 µM in the assay with MCF-7 cells (Homo sapiens, MCF7); 14.1 ± 0.82 µM with UM-UC-3 cells (Homo sapiens, UMUC3, Table 6); 7.34 ± 0.65 µM in the assay with MG-63 cells (Homo sapiens, MG-63, Table 7); 16.5 ± 0.92 µM in the assay with BxPC-3 cells (Homo sapiens, BXPC-3, Table 7). The IC50 in the assay with HeLa cells (Homo sapiens, HeLa) is > 30 µM; in the assay on T24 cells (Homo sapiens, T-24) it was 11.5 ± 0.66 µM; with J82 cells (Homo sapiens, J82) it was 6.05 ± 0.63 µM.

For the compound `COc1cc2ncnc(NCc3cccc(NC(=O)Nc4ccc(C)cc4)c3)c2cc1OCCCCCCN1CCN(CCN2CCOCC2)CC1` [Compound 8-1d, N-(3-(((7-methoxy-6-((6-(4-(2-morpholinoethyl)piperazin-1-yl)hexyl)oxy)quinazolin-4-yl)amino)methyl)phenyl)-N′-(4-methylphenyl)urea], the IC50 in assay [2] (setting [4]) worked out at 12.6 ± 0.92 µM; in the assay with Hep G2 cells (Homo sapiens, HepG2) it was 7.04 ± 0.48 µM; in the assay on PANC-1 cells (Homo sapiens, PANC-1, Table 7), 27.4 ± 2.24 µM; in the assay on SK-OV-3 cells (Homo sapiens, SK-OV-3, Table 9) it was 9.26 ± 0.87 µM; in assay [1] (setting [5]), 12.8 ± 0.66 µM; in the assay on 5637 cells (Homo sapiens) it was 7.72 ± 0.66 µM. Besides, the IC50 was 8.62 ± 0.53 µM with 143B cells (Homo sapiens, 143B, Table 7); 15.8 ± 0.84 µM in the assay with A549 cells (Homo sapiens, A549); > 30 µM with MCF-7 cells (Homo sapiens, MCF7); 13.2 ± 0.77 µM in the assay with UM-UC-3 cells (Homo sapiens, UMUC3, Table 6); 7.73 ± 0.49 µM with MG-63 cells (Homo sapiens, MG-63, Table 7); 13.7 ± 0.73 µM in the assay with BxPC-3 cells (Homo sapiens, BXPC-3, Table 7). For the same compound, the IC50 in the assay on HeLa cells (Homo sapiens, HeLa) turned out to be 16.1 ± 0.71 µM; with T24 cells (Homo sapiens, T-24), 6.59 ± 0.79 µM; in the assay on J82 cells (Homo sapiens, J82), 5.89 ± 0.57 µM.

For `CC(C)(C)c1ccc(NC(=O)Nc2cccc(CNc3ncnc4ccccc34)c2)cc1` [Compound II-9, reference compound], the IC50 was determined as 15.7 ± 1.52 µM with PANC-1 cells (setting [6]); 7.78 ± 0.69 µM in the assay with SK-OV-3 cells (setting [7]); 10.5 ± 0.43 µM with 143B cells (setting [8]); 9.77 ± 0.52 µM in the assay on UM-UC-3 cells (setting [9]); 9.24 ± 0.71 µM with MG-63 cells (setting [10]); 13.3 ± 0.87 µM in the assay with BxPC-3 cells (setting [11]).

In the case of `O=C(Nc1ccc(C(F)(F)F)cc1)Nc1cccc(CNc2ncnc3ccccc23)c1` [Compound II-13, reference compound], the concentration for half-maximal inhibition (IC50) was found to be 26.2 ± 2.26 µM with PANC-1 cells (setting [6]); 15 ± 1.74 µM in the assay on SK-OV-3 cells (setting [7]); 7.56 ± 0.27 µM in the assay on 143B cells (setting [8]); 9.63 ± 0.52 µM with UM-UC-3 cells (setting [9]); 20.8 ± 0.95 µM in the assay on MG-63 cells (setting [10]); 8.43 ± 0.39 µM in the assay on BxPC-3 cells (setting [11]).

Turning to `O=C(Nc1cccc(CNc2ncnc3ccccc23)c1)Nc1ccc(Cl)cc1Cl` [Compound II-17, reference compound], the IC50 in the assay on PANC-1 cells (setting [6]) was found to be 20.7 ± 0.96 µM; with SK-OV-3 cells (setting [7]) it was 9.27 ± 0.55 µM; with 143B cells (setting [8]), 10.3 ± 0.67 µM; in the assay with UM-UC-3 cells (setting [9]) it was 7.69 ± 0.56 µM; with MG-63 cells (setting [10]), 8.54 ± 0.59 µM; with BxPC-3 cells (setting [11]), 14.2 ± 0.82 µM.

For the compound `CNC(=O)c1cc(Oc2ccc(NC(=O)Nc3ccc(Cl)c(C(F)(F)F)c3)c(F)c2)ccn1` [Reg, regorafenib, reference compound], the IC50 in [1] (Homo sapiens, SV-HUC1, 48 h) is 11.4 ± 0.69 µM.

Values taken from patent US20260285816A1, “Piperazinyl-Modified Quinazolinyl-Aryl Urea Derivative, And Preparation Method And Use Thereof” (Guangxi Normal University, priority 2025, published 2026).
